In brackets after ≈: the same amount, converted by molar mass.
Experiments:
[1] = test system: HCV replicon I389luc-ubi-neo/NS3-3'/5.1; experiment: Anti-HCV replicon assay (luciferase activity) in Huh-5-2 cells; assay type: cell-based, Hepatitis C virus; conditions: concentration required to inhibit luciferase activity in the replicon system by 50%
Procedure, shortened: (§1)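 Huh-5-2 cells carrying the luciferase HCV replicon, seeded 24 h, then exposed to serial compound dilutions without G418 for 72 h at 37° C, 5% CO2. Replication read as luciferase luminescence, expressed as percentage of untreated cultures; culture density measured in parallel by MTS.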

[2] = test system: HCV replicon (RNA) synthesis; experiment: Quantitative analysis of HCV replicon RNA by Taqman real-time RT-PCR in Huh-5-2 cells; assay type: cell-based, Hepatitis C virus; conditions: for EC50: Hepatitis C virus, Huh-5-2, concentration required to reduce the synthesis of HCV replicon by 50% as determined by real-time quantitative RT-PCR; for CT: Huh-5-2 cells, untreated 26.27 ± 0.34; for Delta CT: higher Delta CT = more profound inhibition of viral RNA synthesis
Procedure: Replicon cells were plated at 7.5×10^3 cells per well in a 96-well plate plates at 37° C. and 5% CO2 in Dulbecco's modified essential medium containing 10% fetal calf serum, 1% nonessential amino acids and 1 mg/ml Geneticin. After allowing 24 h for cell attachment, different dilutions of compound were added to the cultures. Plates were incubated for 5 days, at which time RNA was extracted using the Qiamp Rneazyi Kit (Qiagen, Hilden, Germany). […] After initial activation of uracil-N-glycosylase at 50° C. for 2 minutes, RT was performed at 60° C. for 30 minutes, followed by inactivation of uracil-N-glycosylase at 95° C. for 5 minutes. Subsequent PCR amplification consisted of 40 cycles of denaturation at 94° C. for 20 seconds and annealing and extension at 62° C. for 1 minute in an ABI 7700 sequence detector. For each PCR run, negative template and positive template samples were used. The cycle threshold value (Ct-value) is defined as the number of PCR cycles for which the signal exceeds the baseline, which defines a positive value. The sample was considered to be positive if the Ct-value was <50. Results are expressed as genomic equivalents (GE).

[3] = Proliferation of exponentially growing Huh-5-2 cells (MTS method); conditions: human, CC50, concentration required to inhibit the proliferation of exponentially growing Huh-5-2 cells by 50%
Procedure, shortened: as §1

[4] = Hepatitis C virus, Huh-5-2, 72 h

SMILES	IC50 [1, 4]	EC50 [2]	CC50 at 72 h ([3]; Table 2)	other results
COCCN1C(=O)c2ccccc2C(C(=O)Nc2ccc(OC)c(OC)c2)C1c1cccs1 (stereo not shown) [C48, N-(3,4-dimethoxyphenyl)-2-(2-methoxyethyl)-1-oxo-3-(thiophen-2-yl)-1,2,3,4-tetrahydroisoquinoline-4-carboxamide]	0.3 µg/mL (≈ 0.643 µM)	0.6 µg/mL (≈ 1.29 µM)		
COCCN1C(=O)c2ccccc2C(C(=O)Nc2ccc(-c3ccccc3)nc2)C1c1cccs1 (stereo not shown) [C186, 2-(2-methoxyethyl)-1-oxo-N-(6-phenylpyridin-3-yl)-3-(thiophen-2-yl)-1,2,3,4-tetrahydroisoquinoline-4-carboxamide]	0.04 µg/mL (≈ 0.0827 µM)	0.045 µg/mL (≈ 0.0931 µM)	2.79 µg/mL (≈ 5.77 µM)	CC50 at 72 h ([3]; Table 4): > 50 µg/mL
COCCN1C(=O)c2ccccc2C(C(=O)Nc2ccc(Cl)cc2)C1c1cccs1 (stereo not shown) [C49, N-(4-chlorophenyl)-2-(2-methoxyethyl)-1-oxo-3-(thiophen-2-yl)-1,2,3,4-tetrahydroisoquinoline-4-carboxamide]	0.1 µg/mL (≈ 0.227 µM)	0.85 µg/mL (≈ 1.93 µM)		
COCCN1C(=O)c2c(F)cccc2C(C(=O)Nc2cccc(OC)c2)C1c1cccs1 (stereo not shown) [C51, 8-Fluoro-2-(2-methoxyethyl)-N-(3-methoxyphenyl)-1-oxo-3-(thiophen-2-yl)-1,2,3,4-tetrahydroisoquinoline-4-carboxamide]	0.5 µg/mL (≈ 1.1 µM)	< 0.4 µg/mL		
COCCN1C(=O)c2ccccc2C(C(=O)Nc2ccc(Oc3cncc(C)n3)cc2)C1c1cccs1 (stereo not shown) [C191, 2-(2-methoxyethyl)-N-(4-(6-methylpyrazin-2-yloxy)phenyl)-1-oxo-3-(thiophen-2-yl)-1,2,3,4-tetrahydroisoquinoline-4-carboxamide]	0.013 µg/mL (≈ 0.0253 µM)	0.013 µg/mL (≈ 0.0253 µM)		
COCCN1C(=O)c2ccccc2C(C(=O)Nc2ccc(-c3ccco3)cc2)C1c1cccs1 (stereo not shown) [C159, N-(4-(furan-2-yl)phenyl)-2-(2-methoxyethyl)-1-oxo-3-(thiophen-2-yl)-1,2,3,4-tetrahydroisoquinoline-4-carboxamide]	0.028 µg/mL (≈ 0.0593 µM)	0.064 µg/mL (≈ 0.135 µM)	> 100 µg/mL	CC50 at 72 h ([3]; Table 4): > 50 µg/mL
COCCN1C(=O)c2ccccc2C(C(=O)Nc2ccc(C(=O)OC)cc2)C1c1cccs1 (stereo not shown) [C45, Methyl 4-(2-(2-methoxyethyl)-1-oxo-3-(thiophen-2-yl)-1,2,3,4-tetrahydroisoquinoline-4-carboxamido)benzoate]	0.1 µg/mL (≈ 0.215 µM)	12 µg/mL (≈ 25.8 µM)		
COCCN1C(=O)c2ccccc2C(C(=O)Nc2ccc(-c3cnco3)cc2)C1c1cccs1 (stereo not shown) [C178, 2-(2-methoxyethyl)-N-(4-(oxazol-5-yl)phenyl)-1-oxo-3-(thiophen-2-yl)-1,2,3,4-tetrahydroisoquinoline-4-carboxamide]	0.035 µg/mL (≈ 0.0739 µM)	0.036 µg/mL (≈ 0.076 µM)		
COCCN1C(=O)c2ccccc2C(C(=O)Nc2cc(C(C)(C)C)on2)C1c1cccs1 (stereo not shown) [C142, N-(5-tert-butylisoxazol-3-yl)-2-(2-methoxyethyl)-1-oxo-3-(thiophen-2-yl)-1,2,3,4-tetrahydroisoquinoline-4-carboxamide]	0.04 µg/mL (≈ 0.0882 µM)	0.22 µg/mL (≈ 0.485 µM)		
COCCN1C(=O)c2c(ccc(OC)c2F)C(C(=O)Nc2cccc(OC)c2)C1c1cccs1 (stereo not shown) [C128, 8-fluoro-7-methoxy-2-(2-methoxyethyl)-N-(3-methoxyphenyl)-1-oxo-3-(thiophen-2-yl)-1,2,3,4-tetrahydroisoquinoline-4-carboxamide]	0.4 µg/mL (≈ 0.826 µM)	0.14 µg/mL (≈ 0.289 µM)		
COCCN1C(=O)c2ccccc2C(C(=O)Nc2ccc(-c3noc(C)n3)cc2)C1c1cccs1 (stereo not shown) [C187, 2-(2-methoxyethyl)-N-(4-(5-methyl-1,2,4-oxadiazol-3-yl)phenyl)-1-oxo-3-(thiophen-2-yl)-1,2,3,4-tetrahydroisoquinoline-4-carboxamide]	0.01 µg/mL (≈ 0.0205 µM)	< 0.016 µg/mL		
COCCN1C(=O)c2ccccc2C(C(=O)Nc2ccc3nc(C)ccc3c2)C1c1cccs1 (stereo not shown) [C168, 2-(2-methoxyethyl)-N-(2-methylquinolin-6-yl)-1-oxo-3-(thiophen-2-yl)-1,2,3,4-tetrahydroisoquinoline-4-carboxamide]	0.037 µg/mL (≈ 0.0785 µM)	0.048 µg/mL (≈ 0.102 µM)		
COCCN1C(=O)c2ccccc2C(C(=O)Nc2ccc(-c3ncccn3)cc2)C1c1cccs1 (stereo not shown) [C175, 2-(2-methoxyethyl)-1-oxo-N-(4-(pyrimidin-2-yl)phenyl)-3-(thiophen-2-yl)-1,2,3,4-tetrahydroisoquinoline-4-carboxamide]	0.057 µg/mL (≈ 0.118 µM)	0.046 µg/mL (≈ 0.0949 µM)		
COCCN1C(=O)c2ccccc2C(C(=O)Nc2ccc(-n3cccc3)cc2)C1c1ccc(Cl)s1 (stereo not shown) [C153, N-(4-(1H-pyrrol-1-yl)phenyl)-3-(5-chlorothiophen-2-yl)-2-(2-methoxyethyl)-1-oxo-1,2,3,4-tetrahydroisoquinoline-4-carboxamide]	0.104 µg/mL (≈ 0.206 µM)	1.12 µg/mL (≈ 2.21 µM)		
COCCN1C(=O)c2ccccc2C(C(=O)Nc2ccc(C#N)cc2)C1c1cccs1 (stereo not shown) [C20, N-(4-cyanophenyl)-2-(2-methoxyethyl)-1-oxo-3-(thiophen-2-yl)-1,2,3,4-tetrahydroisoquinoline-4-carboxamide]	0.4 µg/mL (≈ 0.927 µM)		42 µg/mL (≈ 97.3 µM)	
COCCN1C(=O)c2ccccc2C(C(=O)Nc2ccc(-c3csc(C)n3)cc2)C1c1cccs1 (stereo not shown) [C157, 2-(2-methoxyethyl)-N-(4-(2-methylthiazol-4-yl)phenyl)-1-oxo-3-(thiophen-2-yl)-1,2,3,4-tetrahydroisoquinoline-4-carboxamide]	0.04 µg/mL (≈ 0.0794 µM)	0.036 µg/mL (≈ 0.0715 µM)		
COCCN1C(=O)c2ccccc2C(C(=O)Nc2ccc(F)cc2)C1c1cccs1 (stereo not shown) [C95, N-(4-fluorophenyl)-2-(2-methoxyethyl)-1-oxo-3-(thiophen-2-yl)-1,2,3,4-tetrahydroisoquinoline-4-carboxamide]	2.21 µg/mL (≈ 5.21 µM)		76.3 µg/mL (≈ 180 µM)	
COCCN1C(=O)c2ccccc2C(C(=O)Nc2cccc(F)c2)C1c1cccs1 (stereo not shown) [C47, N-(3-fluorophenyl)-2-(2-methoxyethyl)-1-oxo-3-(thiophen-2-yl)-1,2,3,4-tetrahydroisoquinoline-4-carboxamide]	0.4 µg/mL (≈ 0.942 µM)	1.42 µg/mL (≈ 3.35 µM)		
COCCN1C(=O)c2ccccc2C(C(=O)Nc2ccc3scnc3c2)C1c1cccs1 (stereo not shown) [C81, N-(benzo[d]thiazol-5-yl)-2-(2-methoxyethyl)-1-oxo-3-(thiophen-2-yl)-1,2,3,4-tetrahydroisoquinoline-4-carboxamide]			65 µg/mL (≈ 140 µM)	IC50 ([1]; 72 hours): 0.16 µg/mL (≈ 0.345 µM)
COCCN1C(=O)c2ccccc2C(C(=O)Nc2cccc(OC)c2)C1c1ccsc1 (stereo not shown) [C11, 2-(2-Methoxyethyl)-N-(3-methoxyphenyl)-1-oxo-3-(thiophen-3-yl)-1,2,3,4-tetrahydroisoquinoline-4-carboxamide]	1.2 µg/mL (≈ 2.75 µM)		37.9 µg/mL (≈ 86.8 µM)	
COCCN1C(=O)c2ccccc2C(C(=O)Nc2ccc(OC3CCOCC3)cc2)C1c1cccs1 (stereo not shown) [C218, 2-(2-methoxyethyl)-1-oxo-N-(4-(tetrahydro-2H-pyran-4-yloxy)phenyl)-3-(thiophen-2-yl)-1,2,3,4-tetrahydroisoquinoline-4-carboxamide]	0.1 µg/mL (≈ 0.197 µM)		83.8 µg/mL (≈ 165 µM)	
COCCN1C(=O)c2c(ccc(C)c2F)C(C(=O)Nc2cccc(OC)c2)C1c1cccs1 (stereo not shown) [C93, 8-fluoro-2-(2-methoxyethyl)-N-(3-methoxyphenyl)-7-methyl-1-oxo-3-(thiophen-2-yl)-1,2,3,4-tetrahydroisoquinoline-4-carboxamide]	0.17 µg/mL (≈ 0.363 µM)		32.9 µg/mL (≈ 70.2 µM)	
COCCN1C(=O)c2ccccc2C(C(=O)Nc2cccc(OC)c2)C1c1cccs1 (stereo not shown) [2-(2-methoxyethyl)-N-(3-methoxyphenyl)-1-oxo-3-(thiophen-2-yl)-1,2,3,4-tetrahydroisoquinoline-4-carboxamide]				CT ([2]; 5 ug/ml): 28.65; Delta CT ([2]; 5 ug/ml): 2.38; CT ([2]; 10 ug/ml): 29.29; Delta CT ([2]; 10 ug/ml): 3.02; CT ([2]; 20 ug/ml): 29.24; Delta CT ([2]; 20 ug/ml): 2.97
COCCN1C(=O)c2ccccc2C(C(=O)Nc2ccc(C(=O)NCc3ccccc3)cc2)C1c1cccs1 (stereo not shown) [C137, N-(4-(benzylcarbamoyl)phenyl)-2-(2-methoxyethyl)-1-oxo-3-(thiophen-2-yl)-1,2,3,4-tetrahydroisoquinoline-4-carboxamide]	0.032 µg/mL (≈ 0.0593 µM)		81.1 µg/mL (≈ 150 µM)	
COCCN1C(=O)c2ccccc2C(C(=O)Nc2nc3ccc(Cl)cc3s2)C1c1cccs1 (stereo not shown) [C202, N-(6-chlorobenzo[d]thiazol-2-yl)-2-(2-methoxyethyl)-1-oxo-3-(thiophen-2-yl)-1,2,3,4-tetrahydroisoquinoline-4-carboxamide]	0.17 µg/mL (≈ 0.341 µM)		7.89 µg/mL (≈ 15.8 µM)	
